Measured values reported in patent US5556859A, “N-(4-pyrimidinyl)amide pesticides” (DowElanco, priority 1994, dated 1996).

Experiments:
[1] = test system: Southern corn rootworm (Diabrotica undecimpuctata howardi Barber); test: whole plant or invertebrate; settings: in Zea mays, soil, read-out: percent mortality, SCRW
[2] = test system: two spotted spider mite (Tetranychus urticae); test: whole plant or invertebrate; settings: 72 h, read-out: percent mortality, TSSM
[3] = test system: cotton aphid (Aphis gossypii); test: whole plant or invertebrate; settings: 72 h, read-out: percent mortality, CA
[4] = test system: tobacco budworm (Heliothis virescens); test: Activity against tobacco budworm (TBW); assay type: in vivo; settings: 144 h, read-out: percent mortality, TBW
Method: In conducting evaluations of insecticidal activity, each test compound was formulated as a 400 ppm solution, and this solution was then diluted with water to give lesser concentrations. The 400 ppm solution was prepared by combining 19.2 mL of 0.05% solution of Tween 20 (polyoxyethylene (20) sorbitan monolaurate) in water with a solution of 8 mg of the compound in 0.8 mL of acetone/EtOH (9/1).
Activity against tobacco budworm (Heliothis virescens) was evaluated as follows. A general purpose lepidoptera artificial diet was diluted to half strength with a 5% non nutritive agar. 8 mL of this diet material was dispensed into each one ounce diet cup. One hour prior to treatment 18 to 20 eggs were dispensed onto the diet surface. The cups were then sprayed with formulated material through a flat-fan nozzle. The test was run using concentrations of 400 ppm and 50 ppm. Treated cups were air dried prior to sealing with plastic caps. The cups were held for 6 days at room temperature. Activity was then rated based on the total number of live and dead larvae, and on the size of live larvae.

[5] = test system: German cockroach (Blattella germanicus); test: whole plant or invertebrate; settings: 240 h, read-out: percent mortality, GECR
[6] = test system: peanut root knot nematode (Meloidogyne arenaria); test: whole plant or invertebrate; settings: in Arachis hypogaea, read-out: percent mortality, RKN
[7] = test system: beet armyworm (Spodoptera exiqua); test: whole plant or invertebrate; settings: 144 h, read-out: percent mortality, BAW

| SMILES | mortality at 24 µg/g [1] | mortality at 400 ppm [2] | mortality at 400 ppm [3] | mortality at 400 ppm [4] | mortality at 400 ppm [5] | mortality at 400 ppm [6] | mortality at 400 ppm [7] |
| --- | --- | --- | --- | --- | --- | --- | --- |
| CCCCCCCCC(C)C(=O)Nc1ccnc(CC)n1 (stereo not shown) [Compound 33, N-(2-ethyl-4-pyrimidinyl)-2 methyldecamide] | 0% | 40% | 80% | 0% | 20% | 0% | 0% |
| CCCCc1nccc(NC(=O)Cc2ccc(Oc3ccc(F)cc3)cc2)n1 [Compound 21, 4-(4-fluorophenoxy)phenyl-N-(2-butyl-4-pyrimidinyl)acetamide] | 0% | 100% | 100% | 100% | 100% | 90% | 100% |
| O=C(Cc1ccc(OCC(F)(F)F)cc1)Nc1ccnc(C2CCC2)n1 [Compound 22, 4-(2,2,2-trifluroethoxy)phenyl-N-(2-cyclobutyl-4-pyrimidinyl)acetamide] | 100% | 100% | 100% | 0% | 80% | 100% | 100% |
| CCc1nccc(NC(=O)Cc2ccc(OCC(F)(F)C(F)F)cc2)n1 [Compound 43, 4-(2,2,3,3-tetrafluropropoxy)phenyl-N-(2-ethyl-4-pyrimidinyl)acetamide] | – | 100% | 100% | 60% | – | – | 60% |
| CCCCCCCCCCCCCCCCCC(=O)Nc1ccnc(CC)n1 [Compound 34] | 0% | 0% | 0% | 0% | 20% | 0% | 0% |
| CCc1nccc(NC(=O)Cc2ccc(Oc3ccc(Cl)cn3)cc2)n1 [Compound 37, 4-(5-chloro-2-pyridinyloxy)phenyl-N-(2-ethyl-4-pyrimidinyl)acetamide] | 0% | 0% | 0% | 100% | 100% | 0% | 100% |
| C=C(C)c1nccc(NC(=O)Cc2ccc(Oc3ccc(F)cc3)cc2)n1 [Compound 27, 4-(4-fluorophenoxy)phenyl-N-(2-(1-methylethenyl)-4-pyrimidinyl)acetamide] | 0% | 0% | 100% | 0% | 0% | 0% | 0% |
| CCCCc1nccc(NC(=O)Cc2ccc(OCC(F)(F)F)cc2)n1 [Compound 20, 4-(2,2,2-trifluroethoxy)phenyl-N-(2-butyl-4-pyrimidinyl)acetamide] | 100% | 0% | 0% | 0% | 0% | 80% | 100% |
| CCc1nccc(NC(=O)Cc2ccc(OC(F)F)cc2)n1 [Compound 42, 4-difluromethoxy-N-(2-ethyl-4-pyrimidinyl)acetamide] | – | 100% | 100% | 0% | – | – | 40% |
| CC(C)c1nccc(NC(=O)Cc2ccc(Oc3ccc(F)cc3)cc2)n1 [Compound 31, 4-(4-fluorophenoxy)phenyl-N-(2-(1-methylethyl)-4-pyrimidinyl)acetamide] | 0% | 100% | 100% | 100% | 100% | 0% | 100% |
| CCCCCc1ccc(CC(=O)Nc2ccnc(CC)n2)cc1 [Compound 41, 4-pentylphenyl-N-(2-ethyl-4-pyrimidinyl)acetamide] | – | 100% | 100% | 40% | – | – | 100% |
| O=C(Cc1ccc(Oc2ccc(F)cc2)cc1)Nc1ccnc(C2CCC2)n1 [Compound 23, 4-(4-fluorophenoxy)phenyl-N-(2-cyclobutyl-4-pyrimidinyl)acetamide] | 0% | 100% | 100% | 100% | 100% | 100% | 100% |
| CC(C)(C)c1nccc(NC(=O)Cc2ccc(OCC(F)(F)F)cc2)n1 [Compound 24, 4-(2,2,2-trifluroethoxy)phenyl-N-(2-(1,1-dimethylethyl)-4-pyrimidinyl)acetamide] | 100% | 60% | 90% | 100% | 0% | 0% | 100% |
| O=C(Cc1ccc(OCC(F)(F)F)cc1)Nc1ccncn1 [Compound 28, 4-(2,2,2-trifluroethoxy)phenyl-N-(4-pyrimidinyl)acetamide] | 0% | 0% | 100% | 0% | 0% | 0% | 0% |
| COCc1nccc(NC(=O)Cc2ccc(Oc3ccc(F)cc3)cc2)n1 [Compound 39, 4-(4-fluorophenoxy)phenyl-N-(2-(methoxymethyl)-4-pyrimidinyl)acetamide] | 0% | 100% | 100% | 100% | 100% | 100% | 100% |
| CC(C)c1nccc(NC(=O)Cc2ccc(OCC(F)(F)F)cc2)n1 [Compound 30, 4-(2,2,2-trifluroethoxy)phenyl-N-(2-(1-methylethyl)-4-pyrimidinyl)acetamide] | 100% | 100% | 100% | 90% | 80% | 100% | 100% |
| CCc1nccc(NC(=O)Cc2ccc(Oc3ccccc3)cc2)n1 [Compound 47, 4-phenoxyphenyl-N-(2-ethyl-4-pyrimidinyl)acetamide] | – | 100% | 100% | 40% | – | – | 100% |
| CCCc1nccc(NC(=O)Cc2ccc(OCC(F)(F)F)cc2)n1 [Compound 18, 4-(2,2,2-trifluroethoxy)phenyl-N-(2-propyl-4-pyrimidinyl)acetamide] | 0% | 80% | 100% | 80% | 20% | 100% | 100% |
| CCc1nccc(NC(=O)Cc2ccc(Oc3ccc(C(C)=O)cc3)cc2)n1 [Compound 49, 4-(4-acetylphenoxy)phenyl-N-(2-ethyl-4-pyrimidinyl)acetamide] | – | 100% | 100% | 40% | – | – | 100% |
| CCc1nccc(NC(=O)Cc2ccc(C(C)(C)C)cc2)n1 [Compound 48, 4-(1,1-dimethylethyl)phenyl-N-(2-ethyl-4-pyrimidinyl)acetamide] | – | 100% | 100% | 20% | – | – | 0% |
| CCc1nccc(NC(=O)Cc2ccc(C(C)C)cc2)n1 [Compound 45, 4-(1-methylethyl)phenyl-N-(2-ethyl-4-pyrimidinyl)acetamide] | – | 100% | 100% | 0% | – | – | 100% |
| CCCCOc1ccc(CC(=O)Nc2ccnc(CC)n2)cc1 [Compound 44, 4-butoxyphenyl-N-(2-ethyl-4-pyrimidinyl)acetamide] | – | 90% | 100% | 0% | – | – | 100% |
| CCc1nccc(NC(=O)COc2ccc(C(C)C)cc2)n1 [Compound 46, 4-(1-methylethyl)phenoxy-N-(2-ethyl-4-pyrimidinyl)acetamide] | – | 0% | 0% | 0% | – | – | 0% |
| CCc1nccc(NC(=O)Cc2ccc3ccccc3c2)n1 [Compound 50, 2-naphthyl-N-(2-ethyl-4-pyrimidinyl)acetamide] | – | 100% | 100% | 40% | – | – | 60% |
| CCc1nccc(NC(=O)Cc2ccc(-c3ccccc3)cc2)n1 [Compound 40] | – | 0% | 60% | 40% | – | – | 20% |
